Data as given in patent US20070049538A1, “METHODS FOR USING CUCURBITACIN COMPOUNDS” (SOUTH DAKOTA STATE UNIVERSITY, priority 2005, published 2007).
Like-named read-outs stand apart in the source and are kept apart here.

What was measured:
HepG2 cells [1] = experiment: Cucurbitacins cytotoxicity on HepG2 cells (MTT viability assay); type: cell-based, human
Experimental: HepG2 (human hepatocellular carcinoma, ATCC) cells were grown in EMEM (Gibco, Grand Island, N.Y.) supplemented with 10% fetal bovine serum (FBS), and 1% penicillin/fungizone mixture (Gibco). Thabrew's optimized procedure (Thabrew et al., J. Pharm. Pharmcol. 49 (1994) 1442, the entire disclosure of which is herein incorporated by reference) was followed. Cells were batch cultured for 10 days, then seeded at concentration of 30,000 cells/well in fresh media in 96-well microtiter plastic plates at 37° C. for a day. Then cells were exposed to different concentrations of cucurbitacins at final volume of 100 μl/well. Five-fold serial dilution of compounds was carried out in the plate for five consecutive wells. After 24 h of incubation with chemicals, live cells were visualized using the MTT viability assay (Promega, Madison, Wis.). The absorbance was measured at 570 nm. Negative (without cells) and positive (without test chemicals) controls were also incubated with each plate. […] At least three reproducible experiments were performed per compound with three replicate wells per concentration.
Cells were challenged with cu-curbitacins at various concentrations for a day and then live cells quantified with MTT dye. This period of time measures exclusively compounds cytotoxicity, while longer incubation time may lead to interference from metabolites.

[2] = Chromatographic hydrophobicity index (CHI) by RP-HPLC in buffered acetonitrile; type: physicochemical; parameters: key: CHI = φ0 (isocratic hydrophobicity index), = A·tR + B; ACN % scale; settings: for CHIACN1: buffered acetonitrile pH 7.0, Alltima C18 250 mm, Eq. (2) from isocratic φ0; for CHIACN2: buffered acetonitrile pH 7.0, Eq. (3) calibrated against published CHI
Experimental: (§1) We used Dynamax liquid chromatograph (Varian Chromatography Systems) with PDA-2 photodiode array UV detector, controlled by the Dynamax PC Chromatography Data System (v. 1.9) software and Dynamax dual pump solvent delivery system, model SD-200. […] Cucurbitacins analytical separation was optimized on Alltima C18 (Alltech; 250 mm×4.6 mm, 5 μm) HPLC column, at gradient elution in acetonitrile (ACN, 30-70% ACN in 57 min), and in MeOH (60-75% MeOH in 50 min). Cucurbitacins stock concentration of 10^−2M in DMSO:ethanol (1:1) was standardized against pure cucurbitacin I (Indofine Chemical Company, Hillsborough, N.J.) by analytical HPLC means. Compounds CHI was measured in both ACN, by using Alltima C18 column, and in MeOH, by using Econosil C18 column (Alltech; 150 mm×4.6 mm, 5 μm). Analytical separations were conducted at a flow rate of 1 ml/min. The aqueous phase was buffered for the CHI measurement. For this purpose, solid ammonium acetate (Fisher Sci. Co., Fair Lawn, N.J.) was dissolved in deionized distilled water at 50 mM final concentration and its pH adjusted to 7.0.
All standard compounds were purchased from Acros (Acros Organics, NJ). The chromatographic lipophilicity or hydrophobicity was determined applying Valkó's technique (Valkó et al., Anal. Chem. 69 (1997) 2022, the entire disclosure of which is herein incorporated by reference). A standard mixture of seven compounds was prepared in solution: theophylline (compound 19), benzimidazole (compound 20), acetophenone (compound 21), indole (compound 22), propiophenone (compound 23), butyrophenone (compound 24), and valerophenone (compound 25). […] The retention factor, log k=log((tR-t0)/t0), was calculated for each analyte from five good injections of […] sample. The dead time (t0) was measured by injecting NaNO3 together with the sample. Then, the log k values were plotted against isocratic ACN concentrations to establish the linear regression equations for each analyte. From each straight line the isocratic hydrophobicity index was computed, φ0=(intercept/slope). Further, the calibration mixture was injected at fast gradient elution, 0-22 min 0-100% ACN, and three additional minutes at 100% ACN. The φ0 values for the test compounds were plotted against gradient retention time and the linear equation determined from the following equation: φ0=CHI=AtR+B (1)
The gradient elution conditions were similar to the one from the first approach.
(§2) Cucurbitacins lipophilicity was measured by RP-HPLC. […] Due to its high viscosity, aqueous MeOH required a shorter column than the one applied for ACN. First, the C18 columns were calibrated against a standard mixture, and the relationships established between the fast gradient tR and φ0 or published CHI (see Eqs. (2)-(4) from Table 2). Second, cucurbitacins were injected at fast gradient elution under similar conditions, and their CHI calculated (Table 4) from Eqs. (2)-(4). Eqs.

[3] = Chromatographic hydrophobicity index (CHI) by RP-HPLC in buffered methanol; type: physicochemical; settings: for CHIMeOH: buffered methanol pH 7.0, Econosil C18 150 mm, Eq. (4)
Experimental: as §1
A standard mixture of 10 compounds including 19-21, 23-27, aniline (compound 28) and bromobenzene (compound 29), dissolved in MeOH, was injected at five isochratic elution, at 40, 45, 50, 55, and 60% MeOH. Then the mixture was injected at fast gradient elution to establish the correlation from Eq. (1). The fast linear gradient elution was optimized for 30-100% MeOH in aqueous buffer with 10 min runtime.
as §2

HepG2 cells [4] = experiment: cells; settings: read-out: EC50 cytoprotection; Table 7; HepG2 against CCl4 toxicity; estimated
Description: Experimental conditions were standardized on silybin. […]
The ratio of IC50-to-EC50 (hereafter T/A) is also indicated in this table, which gives the margin between toxic and cytoprotective concentrations.

HSC-T6 cells [5] = experiment: Serum-driven HSC-T6 proliferation, experiment 1 (4 h challenge, two days drug-free growth); type: cell-based, rat; settings: HSC-T6, 4 h challenge, then two days drug-free media
Experimental: The proliferation effect of serum on HSC-T6 cells was optimized and cucurbitacin antiproliferative activity was measured. Serum contains a large number of growth factors, hormones and other nutrients, which help cells to grow and multiply. Several trials were conducted. In experiment 1, cells were challenged with cucurbitacin analogs for 4 h and then cells were grown in drug-free media for two additional days.
HSC-T6 cells were photographed under phase-contrast microscope to record possible changes in cell morphology during experiment 1. […] We are monitoring specifically the effect of compound on the cells, cell recovery after 4 h challenge, and relative cell proliferation. […] Live cells are quantified at the end of the assay (row 4) with MTT dye.
(§3) We established several experimental conditions such as 4 hours of incubation time with cucurbitacin, and 2 day cell incubation with fresh media after challenging with cucurbitacin (Exp. 1). Other experiments involved addition of cucurbitacin for 24 hours over starved cells (Exp. 2) vs. proliferating cells (Exp. 3), and one day incubation of cells with fresh media after challenge. […] Because of that, the challenge time was increased to 24 hours (Exp. 2 and 3).
We modified this approach. Our assay included a second control (ZC) supplemented with no serum intended to measure cucurbitacin anti-proliferation effect relative to the number of cells generated during challenge instead of the total number of cells present in each well.

HSC-T6 cells [6] = experiment: Serum-driven HSC-T6 proliferation, experiment 3 (24 h, proliferating cells); type: cell-based, rat; settings: HSC-T6, 24 h, proliferating cells; read-out: Experiment 3 EC50 (A)
Experimental: To overcome this problem, the amount of incubation time was increased to 24 h, and cucurbitacin activity measured on starved (Exp. 2) or proliferative (Exp. 3) cells (Table 8). Cells turned quiescent when serum was not supplemented for one day (Exp. 2). Activity of a few compounds was monitored on quiescent cells, and their activity compared to the ones measured on proliferating cells (Exp. 3).
as §3, with “challenge. The 4 hour incubation period with cucurbitacin triggered anti-proliferation effect. This effect, however, was hindered by a second cycle of cell proliferation during the two-day cell growth period (see silybin, E and I glucosides, and for I-nPr).” for “challenge.”
In experiment 3, only 40% of the cells divided. The ratio of EC50 values for exp. 2 and exp. 3 varied between 3.6 and 12.7. This may indicate differential cytotoxicity of silybin and cucurbitacin analogs over quiescent and active stellate cells. In other words, compounds show higher anti-proliferative activity on active cells than on quiescent cells.

HSC-T6 cells [7] = experiment: Cytotoxicity on HSC-T6 cells (experiment 3); type: cell-based, rat; settings: read-out: Experiment 3 IC50 (T)
Description: Cytotoxicity of all cucurbitacin analogs was additionally measured in experiment 3 (Table 8).

[8] = mouse, in vivo; cited from earlier work
[9] = ABTS*+ Radical Cation Decolorization Assay; settings: read-out: concentration of 50% inhibition
Experimental: Cucurbitacin B activity was monitored at 50 μM, 100 μM, and 1.8 mM. The time interval was expanded up to 2 hours in case cucurbitacin B was reacting slowly.

[10] = in vivo; cited from earlier work
HepG2 cells [11] = type: cell-based, human
Experimental: The activity of two toxins was studied first on HepG2 cells—bromobenzene (BB) and CCl4. Cells were challenged with the toxins at different concentration levels. Precipitate formation was observed when BB was diluted with media prior to addition to the cells; therefore, both the precipitate and the supernatant were added separately over cells to study their toxic effect.

CC(C)(O)/C=C/C(=O)[C@](C)(O)[C@H]1[C@H](O)C[C@@]2(C)[C@@H]3CC=C4[C@@H](C[C@H](O)C(=O)C4(C)C)[C@]3(C)C(=O)C[C@]12C [D, cucurbitacin D]
IC50 (HepG2 cells [1]; Table 4, 24 h incubation, MTT): 77.3 µM | IC50 (HepG2 cells [1]; Table 5): 77.3 ± 8.7 µM | IC50 (HepG2 cells [1]; Table 7): 77.3 µM | CHIACN1 [2]: 58.31 | CHIACN2 [2]: 55.83 | CHIMeOH [3]: 60.40 | EC50 (HepG2 cells [4]): 9 µM | EC50 (HSC-T6 cells [5]): 3.8 µM | EC50 (HSC-T6 cells [6]): 0.07 µM | IC50 (HSC-T6 cells [7]): 26 µM | capillary permeability [8]: enhanced capillary permeability

Cc1c(C)c2c(c(C)c1O)CCC(C)(C(=O)O)O2 (stereo not shown) [trolox, reference compound]
IC50 [9]: 580 µM

CC(=O)OC(C)(C)/C=C/C(=O)[C@@](C)(O)[C@H]1[C@H](O)C[C@@]2(C)[C@@H]3CC=C4[C@@H](CC(=O)[C@@H](O)C4(C)C)[C@]3(C)C(=O)C[C@]12C [iso-B, iso-cucurbitacin B]
CHIACN1 [2]: 72.86 | CHIACN2 [2]: 78.38 | CHIMeOH [3]: 68.50 | protective and preventive activity [10]: significantly reducing serum enzymes level, steatosis, inflammation, and experimental cholestasis

Brc1ccccc1 [Bromobenzene (29), bromobenzene, reference compound]
CHIMeOH (b) ([3]; standard compounds, isochratic and gradient elution of standard mixture): 69.43 + 0.07 | cell viability (HepG2 cells [11]; HepG2, toxin at 20 nM): no viability

ClC(Cl)(Cl)Cl [CCl4]
cell viability (HepG2 cells [11]; HepG2, toxin at 4.5×10^−3 M): ~50%
